How the values were obtained:
[1] = test system: CMV IgG-positive sera; experiment: ELISA on peptide-coated microtiter plates with HCMV-positive human sera (localization of epitopes); format: binding; conditions: plates coated with 2.5 μg peptide per ml, serum 1:2; for Reactivity (individual reactivities of the synthetic pXP1 segments with the assayed group of CMV IgG-positive sera): Table 2; for Reactivity (individual reactivities of particularly reactive peptides with the assayed group of CMV IgG-positive sera): Table 3
Method: A microtiter plate with 96 wells was coated with a synthesized peptide. To do this, a solution of 2.5 μg of peptide per ml of carbonate buffer was made up and introduced in 100 μl portions into the wells for the coating. The peptides were adsorbed onto the surfaces at 4° C. overnight and, after removal of the peptide solution, the wells were washed several times with washing buffer (50 mM Tris, pH 7.2, 10 mM EDTA, 0.2% Tween 20). Then individual human serum samples in a 1:2 dilution were introduced and incubated at 37° C. for 1 hour. After another washing step, the conjugate antibody specific for human IgG antibodies or human IgM antibodies and labeled with peroxidase was added and the mixture was incubated at room temperature for 0.5 hour. The reaction was subsequently stopped by adding 0.5 M sulfuric acid and extinction of the individual samples was measured at a wavelength of 450/650 nm in a photometer.
To test the immunogenicity, peptides of various length from the complete amino-acid sequence region from 718 to 880 of the HCMV protein pp150 (Tab. 2 and 3) were synthesized as described in Example 1. Subsequently, as in Example 2, the microtiter plates were coated with the synthesized peptides, and the immunological reactivity was assayed. […] The three immunologically reactive peptides have the following sequences: […]

[2] = test system: monoclonal antibody 87-55/02; experiment: Reaction of monoclonal antibody 87-55/02 with peptide-coated ELISA plate; format: binding; conditions: immunoblot and ELISA reactivity
Source text: It was concluded from the method for selecting the monoclonal antibody that the identified epitope must have a very important structure which is not even destroyed by denaturation of the complete protein. This monoclonal antibody correspondingly reacts both with the synthesized peptide 2.7 (SEQ ID NO:26) and with the recombinant protein XP1 (SEQ ID NO:33) and the pp150 protein of HCMV.

Molecule	Reactivity (individual reactivities of the synthetic pXP1 segments with the assayed group of CMV IgG-positive sera) [1] [%]	Reactivity (individual reactivities of particularly reactive peptides with the assayed group of CMV IgG-positive sera) [1] [%]	reaction with monoclonal antibody 87-55/02 [2]
ala ser arg asp ala ala asp glu val trp ala leu arg asp gln thr ala (ASRDAADEVWALRDQTA) [Peptide 3.2]	80	80	
ala tyr lys phe glu gln pro thr leu thr phe gly ala gly val asn val pro ala gly ala gly ala ala ile leu thr pro thr pro val asn pro ser thr ala pro ala pro ala pro (AYKFGQPTLTFGAGVNVPAGAGAAILTPTPVNPSTAPAPAP) [Peptide 1.13]		90	
arg ala trp ala leu lys asn pro his leu ala tyr asn pro phe (RAWALKNPHLAYNPF) [Peptide 2.10]	80	80	
phe glu gln pro thr leu thr phe gly ala gly val asn val pro ala gly ala gly ala ala ile leu thr pro thr pro val asn pro ser thr ala pro ala pro ala (FEQPTLTFGAGVNVPAGAGAAILTPTPVNPSTAPAPA) [Peptide 1.4]		90	
pro ala gly ala gly ala ala ile leu thr pro thr pro val asn pro ser thr ala pro ala pro ala pro thr pro thr phe ala gly thr (PAGAGAAILTPTPVNPSTAPAPAPTPTFAGT) [Peptide 1.10]		80	
pro arg ala ala val thr gln thr ala ser arg asp ala ala (PRAAVTQTASRDAA) [Peptide 3.1]	60	60	
pp150: HCMV protein pp150 (protein, UniProt P08318 1-1048, looked up) Large structural …: MSLQFIGLQRRDVVALVNFLRHLTQKPDVDLEAHPKILKKCGEKRLHRRTVLFNELMLWLGYYRELRFHNPDLSSVLEEFEVRCVAVARRGYTYPFGDRGKARDHLAVLDRTEFDTDVRHDAEIVERALVSAVILAKMSVRETLVTAIGQTEPIAFVHLKDTEVQRIEENLEGVRRNMFCVKPLDLNLDRHANTALVNAVNKLVYTGRLIMNVRRSWEELERKCLARIQERCKLLVKELRMCLSFDSNYCRNILKHAVENGDSADTLLELLIEDFDIYVDSFPQSAHTFLGARSPSLEFDDDANLLSLGGGSAFSSVPKKHVPTQPLDGWSWIASPWKGHKPFRFEAHGSLAPAAEAHAARSAAVGYYDEEEKRRERQKRVDDEVVQREKQQLKAWEERQQNLQQRQQQPPPPARKPSASRRLFGSSADEDDDDDDDEKNIFTPIKKPGTSGKGAASGGGVSSIFSGLLSSGSQKPTSGPLNIPQQQQRHAAFSLVSPQVTKASPGRVRRDSAWDVRPLTETRGDLFSGDEDSDSSDGYPPNRQDPRFTDTLVDITDTETSAKPPVTTAYKFEQPTLTFGAGVNVPAGAGAAILTPTPVNPSTAPAPAPTPTFAGTQTPVNGNSPWAPTAPLPGDMNPANWPRERAWALKNPHLAYNPFRMPTTSTASQNTVSTTPRRPSTPRAAVTQTASRDAADEVWALRDQTAESPVEDSEEEDDDSSDTGSVVSLGHTTPSSDYNNDVISPPSQTPEQSTPSRIRKAKLSSPMTTTSTSQKPVLGKRVATPHASARAQTVTSTPVQGRLEKQVSGTPSTVPATLLQPQPASSKTTSSRNVTSGAGTSSASSARQPSASASVLSPTEDDVVSPATSPLSMLSSASPSPAKSAPPSPVKGRGSRVGVPSLKPTLGGKAVVGRPPSVPVSGSAPGRLSGSSRAASTTPTYPAVTTVYPPSSTAKSSVSNAPPVASPSILKPGASAALQSRRSTGTAAVGSPVKSTTGMKTVAFDLSSPQKSGTGPQPGSAGMGGAKTPSDAVQNILQKIEKIKNTEE			reacts
XP1: recombinant protein section, amino acid 718-880 of HCMV protein pp150 (protein) DPRFTDTLVDITDTETSAKPPVTTAYKFEQPTLTFGAGVNVPAGAGAAILTPTPVNPSTAPAPAPTPTFAGTQTPVNGNSPWAPTAPLPGDMNPANWPRERAWALKNPHLAYNPFRMPTTSTASQNTVSTTPRRPSTPRAAVTQTASRDAADEVWALRDQTA			reacts

Reference: patent publication US6143493A, “HCMV-specific peptides, agents therefor and the use thereof” (Dade Behring Marburg GmbH, priority 1991, dated 2000)
